# Reference: US8809283B2, “Proteasome inhibitors and uses thereof” (Natuderm, LLC, priority 2005, dated 2014)
# Like-named read-outs stand apart in the source and are kept apart here.
# Tests used:
# SVR cells = assay: SVR cell proliferation assay; assay type: cell-based; settings: 10 mg/ml, 72 hours exposure, Coulter Counter
# Method: The filtered aqueous extract was lyophilized to a dry powder, which was dissolved in distilled water and analyzed by HPLC, and 5 fractions were collected. HPLC fractions were lyophilized. Each fraction was reconstituted into 10 mg/ml solutions, and the ability to inhibit proliferation of SVR cells was tested.
# SVR cells (1×10^4) were plated for 24 hours in a 24-well plate. The media was then changed to DMEM containing purified extract at a concentration of 10 mg/ml. Cells were exposed to drug for 72 hours and were counted with a Coulter Counter (Coulter, Hialeah, Fla.) according to the method of Lamontagne et al (LaMontagne et al., (2000) Am. J. Pathol. 157, 1937-1945). […] In order to determine the component of mate tea responsible, the aqueous extract was fractionated by HPLC, and the ability of the fractions to inhibit SVR cell proliferation was assessed. […] The structures of T-2, T-5, and T-6 were elucidated by proton NMR and mass spectroscopy (FIG. 1). […] The NMR spectra of the compounds are shown below.
# [1] = molecular target: purified prokaryotic 20S proteasome (Methanosarcina thermophila, UniProt Q9P992); assay: Chymotrypsin-like activity of purified 20S proteasome (fluorogenic substrate Suc-Leu-Leu-Val-Tyr-AMC); assay type: biochemical; settings: for inhibition at 100 µM: read-out: inhibition of proteasomal chymotrypsin-like activity
# Sequence of purified prokaryotic 20S proteasome (Q9P992 10-210): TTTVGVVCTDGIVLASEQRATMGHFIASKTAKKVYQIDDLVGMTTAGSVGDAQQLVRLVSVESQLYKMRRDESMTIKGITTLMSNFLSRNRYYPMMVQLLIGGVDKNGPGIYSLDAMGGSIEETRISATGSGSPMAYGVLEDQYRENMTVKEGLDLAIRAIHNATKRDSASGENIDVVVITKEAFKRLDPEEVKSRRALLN
# Sequence of purified prokaryotic 20S proteasome (Q59565 whole entry, further chain): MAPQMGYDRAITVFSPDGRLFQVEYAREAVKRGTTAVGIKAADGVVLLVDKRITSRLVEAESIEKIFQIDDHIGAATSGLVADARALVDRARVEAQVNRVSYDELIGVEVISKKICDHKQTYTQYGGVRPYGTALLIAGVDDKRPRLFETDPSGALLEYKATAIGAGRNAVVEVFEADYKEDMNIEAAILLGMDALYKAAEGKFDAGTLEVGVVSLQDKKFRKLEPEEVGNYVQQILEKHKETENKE
# Method: This example describes the how to analyze the inhibitory effect of isolated fractions of mate tea in vitro, using purified 20S proteasome. The chymotrypsin-like activity of purified 20S proteasome was measured as previously described (Nam et al., (2001) J. Biol. Chem. 276, 13322-13330). Briefly, purified prokaryotic 20S proteasome (0.5 μg) was incubated with 20 μM fluorogenic peptide substrate, Suc-Leu-Leu-Val-Tyr-AMC for 30 min at 37° C. in 100 μl of assay buffer (50 mM Tris-HCl, pH 7.5), with or without a mate tea fraction at indicated concentrations. After incubation, production of hydrolyzed 7-amido-4-methyl-coumarin (AMC) groups was measured using a multi-well plate VersaFluor™ Fluorometer with an excitation filter of 380 nm and an emission filter of 460 nm (Bio-Rad).
# The quinic acid esters resemble the proteasome inhibitor (−)-epigallocatechin gallate [(−)-EGCG] in that they contain hydroxylated aromatic carboxylic acids esterified to a polyhydroxylated aliphatic ring (FIG. 3). Based upon this similarity, and the previous finding that epigallocatechin gallate is an inhibitor of proteasomes (Ren et al., (2000) Oncogene 19, 1419-1427; Nam et al., (2001) J. Biol. Chem. 276, 13322-13330)), the ability of fractions T-2, T-5, and T-6 to inhibit proteasome function was assessed. To determine the ability of quinic acid esters to inhibit proteasome activity, a fluorescent substrate activity assay was performed with purified 20S proteasome. Epigallocatechin gallate (EGCG, Sigma Chemical Company, St Louis, Mo.) was used as a positive control for proteasome inhibition. To ensure complete inhibition of the proteasome, 100 μM EGCG was used. The compound 3,5-dicaffeoylquinic acid (3,5-DCQ) was tested against proteasome activity in three different concentrations: 20, 100, and 200 μg/ml, which correspond to 37, 183, and 366 μM respectively (FIG. 4).
# [2] = molecular target: T1, 26S proteasome in Jurkat T cell extracts (Homo sapiens, UniProt P28074); assay: Proteasome chymotrypsin-like activity in Jurkat T cell extracts; assay type: biochemical; settings: 60 min at 37° C.
# T1 construct: Whole cell extracts (20 μg) of Jurkat T cells; endogenous in cells; host or cells: Jurkat T cells (whole cell extract)
# T1 sequence (P28074 60-263): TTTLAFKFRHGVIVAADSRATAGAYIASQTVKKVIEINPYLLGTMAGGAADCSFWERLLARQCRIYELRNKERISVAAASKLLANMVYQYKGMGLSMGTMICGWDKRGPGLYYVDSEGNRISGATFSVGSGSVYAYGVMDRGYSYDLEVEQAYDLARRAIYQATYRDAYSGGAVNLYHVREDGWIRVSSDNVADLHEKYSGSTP
# Method: This example describes the how to analyze the inhibitory effect of isolated fractions of mate tea in vivo, using cell extracts of the Jurkat cancer cell line. Whole cell extracts (20 μg) of Jurkat T cells were incubated for 60 min at 37° C. with 20 μM of fluorogenic peptide substrate Suc-Leu-Leu-Val-Tyr-AMC in […] of the assay buffer, with or without a mate tea fraction at indicated concentrations. The hydrolyzed AMCs were quantified as described above.
# The abilities of 3,5-DCQ and neochlorogenic acid to inhibit the 26S proteasome activity in Jurkat cell extracts was tested.
# Jurkat T cells = assay: Cell cycle analysis of Jurkat T cells by flow cytometry (propidium iodide); assay type: cell-based; settings: for arrest of Jurkat cells in G2/M phase: 2 μg/ml for 24 h; for increase of G2/M population: 20 μg/ml for 24 h
# Method: To investigate the inhibitory effect of the fractions on cell cycle, Jurkat cells exposed to each fraction were analyzed by flow cytometry. Cell cycle analysis based on DNA content was performed as described previously (See Nam et al., 2001). The cell cycle distribution is shown as the percentage of cells containing G1, S, G2, and M DNA judged by propidium iodide staining.
# The proteasome-inhibitory potencies of 3,5-DCQ and neochlorogenic acid were identified as being associated with growth-inhibitory activity in vivo, based on treating Jurkat T cells with each compound at a concentration of 2 or 20 μg/ml for 24 h. After treatment, the cells were harvested and assayed by flow cytometry. […] In contrast, neochlorogenic acid at the same concentrations had no effects.
# [3] = system: inositol-1,4,5-triphosphate 3 kinase (GgIP3K-A); assay: Inositol-1,4,5-triphosphate 3 kinase activity assay (Mayr et al.); assay type: biochemical; settings: FIG. 6
# Method: An assay was performed as described in Mayr et al., (2005) J. Biol. Chem. 280: 13229-13240, incorporated herein by reference. […] Inhibition of the kinase activity may be important in HIV.
# [4] = at 100 μM, purified 20S proteasome
# [5] = at 20 μg/ml (37 μM 3,5-DCQ; 56 μM neochlorogenic acid)
# [6] = at 100 μg/ml (183 μM 3,5-DCQ; 282 μM neochlorogenic acid)
smiles,measurement,setting,value
"O=C(/C=C/c1ccc(O)c(O)c1)O[C@@H]1[C@H](O)C[C@@](O)(C(=O)O)C[C@H]1OC(=O)/C=C/c1ccc(O)c(O)c1 (stereo in doubt) [T-6, 3,4-Dicaffeoylquinic acid]",inhibition of SVR cell proliferation,SVR cells,most potent inhibitory effects
same,inhibition of proteasomal chymotrypsin-like activity,[1]; [4],40%
"O=C(C=Cc1ccc(O)c(O)c1)OC1CC(O)(C(=O)O)CC(OC(=O)C=Cc2ccc(O)c(O)c2)C1O (stereo not shown) [3,5-DCQ, 3,5-Dicaffeoylquinic acid]",inhibition of SVR cell proliferation,SVR cells,most potent inhibitory effects
same,inhibition at 20 µg/mL,[2]; [5],~50%
same,inhibition at 100 µg/mL,[2]; [6],~85%
same,arrest of Jurkat cells in G2/M phase,Jurkat T cells,very slight arrest
same,increase of G2/M population,Jurkat T cells,~10%
same,inhibition at 100 µM,[1]; [4],60%
"CC(C)(C)c1cc(CCC(=O)OCC(COC(=O)CCc2cc(C(C)(C)C)c(O)c(C(C)(C)C)c2)(COC(=O)CCc2cc(C(C)(C)C)c(O)c(C(C)(C)C)c2)COC(=O)CCc2cc(C(C)(C)C)c(O)c(C(C)(C)C)c2)cc(C(C)(C)C)c1O [PTTC, Pentaerythritol tetrakis (3,5-di-tert-butyl-4-hydroxyhydrocinnamate), reference compound]",inhibition of IP-3 kinase activity (qualitative),[3],inhibit
same,activity against proteasomes (qualitative),"[1]; used as a control, chymotrypsin-like proteasome activity (FIG. 5)",activity against proteasomes
"O=C(C=Cc1ccc(O)c(O)c1)OC1CC(O)(C(=O)O)CC(O)C1O (stereo not shown) [neochlorogenic acid, 5-Caffeoylquinic acid]",inhibition of SVR cell proliferation,SVR cells,most potent inhibitory effects
same,inhibition of 26S proteasome activity in Jurkat cell extracts,[2]; [5],~30%
same,inhibition of 26S proteasome activity in Jurkat cell extracts,[2]; [6],~75%
same,arrest of Jurkat cells in G2/M phase,Jurkat T cells,no effects
same,increase of G2/M population,Jurkat T cells,no effects
same,inhibition at 100 µM,[1],21%
